This is an account of results in PubChem BioAssay AID179 (DTP/NCI, 2004).

Structures are written as SMILES. Several values for one entry are separate records, joined by “and”; a condition that tells them apart may be missing. Equal values may be shown once. Activity calls are given as the source filed them.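 How the source made its calls: active means compounds giving half or more protection of infected cells from virus-caused growth loss, again on retest; inactive means the rest.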 Where a SMILES comes first, the peptide text is derived from it.

The experiment deals with CEM cells HIV-1 protection, formazan growth assay. In words: NCI AIDS Antiviral Assay. Conditions: for IC50: measured here: growth of uninfected CEM cells. In outline:
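Human CEM cells, uninfected and HIV-1-infected, received five drug concentrations, and growth was read by soluble formazan assay. Compounds giving at least 50% protection were retested; reproducible 100% protection defined confirmed active.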

For the compound `CC(NC(=O)CNC(=O)C(N)CO)C(=O)NC(CCC(=O)O)C(=O)NC(CCC(=O)O)C(=O)NC(CO)C(=O)NC(CCCCN)C(=O)NC(CCC(=O)O)C(=O)NC(CCC(N)=O)C(=O)NC(CO)C(=O)N1CCCC1C(=O)NC(CC(N)=O)C(=O)NC(C)C(=O)NC(Cc1cnc[nH]1)C(=O)NC(CO)C(=O)O` (centres undefined) (H-SGAEESKEQSPNAHS-OH; configuration not given here), the EC50 was greater than 100 µM and the 50% inhibitory concentration (IC50) was greater than 100 µM. As for `COc1ccc(/C=C/C(=O)OCCc2ccccc2)cc1OC`, the EC50 is greater than 25.1 µM and the IC50 was greater than 25.1 µM. With `CCSC(=O)n1nc(Cl)c2cc([N+](=O)[O-])ccc21`, the EC50 was greater than 200 µM and the IC50 was greater than 200 µM. For `COC(=O)c1cc(C#N)[nH]c1-c1ccc(C)s1`, the EC50 is greater than 200 µM and the IC50 is 35.5 µM. In the case of `O=c1ccn(C2CCC3(CO)CC23)c(=O)[nH]1` (centres undefined), the EC50 is greater than 50.1 µM and the IC50 was greater than 50.1 µM. In the case of `COc1ccc(/C(Cl)=C/c2ccc(Cl)c(Cl)c2)cc1`, the EC50 is greater than 200 µM and the IC50 is greater than 200 µM.

For the compound `CN(C)Cc1cc(CN(C)C)c(O)c(CN(C)C)c1`, the EC50 is greater than 200 µM and the IC50 was greater than 200 µM. Regarding `O=C(O)c1ccc(S(=O)(=O)O)o1`, the EC50 is greater than 200 µM and the half-inhibitory concentration (IC50) is greater than 200 µM. As to `N#C/C(=C\c1ccccc1)c1ccccc1F`, the EC50 was greater than 200 µM and the IC50 amounted to 37.2 µM. The matching figures for `CC(=O)Oc1ccc(Nn2c3ccccc3c3ccccc32)c(C)c1`: greater than 200 µM and 11.7 µM. For `Cc1ccc(C)n1-n1c2ccccc2c2ccccc21`, in that order: greater than 100 µM and greater than 100 µM. For `CCOP(=S)(NN=C1CCC(C(C)(C)C)CC1)OCC` (centres undefined), in that order: greater than 200 µM and 89.1 µM. As to `OC1C(O)C2(C[C@H]1Br)OC(COCc1ccccc1)[C@@H](COCc1ccccc1)O2` (some centres undefined), the outcome was inactive. For `CC(C)c1cccc2sc(NC(=O)C(=O)CC(=O)c3ccc(F)cc3)nc12`, the outcome was inactive.

For `Cc1cc(C)nc(NC(=S)Nc2ccc([N+](=O)[O-])cc2)c1`, the EC50 was greater than 200 µM and the IC50 is greater than 200 µM. For `O=S1(=O)C/C(=C\N2CCOCC2)c2ccccc21`, the EC50 is greater than 200 µM and the concentration for half-maximal inhibition (IC50) is greater than 200 µM. `CCC1CC2C(=O)N(c3ccccc3)C(=O)C2c2[nH]c3ccccc3c21` (centres undefined): the outcome was inactive.

With `CN(/C(=N\O)c1ccccc1)c1ccccc1`, the outcome was inactive. `NC(=O)N/N=C1/C2CC3CC(C2)C1C3` (centres undefined): the EC50 was greater than 200 µM and the IC50 was greater than 200 µM.

Turning to `NC1CSSCC(C(=O)O)NC1=O` (centres undefined), the EC50 was greater than 61.7 µM and the IC50 is greater than 61.7 µM.

In the case of `O=C1c2ccccc2S(=O)(=O)c2c1cccc2[N+](=O)[O-]`, the EC50 was greater than 200 µM and the IC50 is 0.851 µM.

For the compound `O=C1ON=C2C3CC4CC12CC1(C3)C(=O)ON=C41`, the EC50 was greater than 200 µM and the IC50 was greater than 200 µM. For the compound `Cc1ccn2c(N=O)c(-c3ccccc3)nc2c1`, the EC50 is 135 µM and the IC50 was greater than 200 µM. The matching figures for `CC1=C(C(=O)Nc2cc(F)c(F)cc2F)C(c2cccc([N+](=O)[O-])c2)C(C(=O)Nc2ccccc2C(F)(F)F)=C(C)N1` (centres undefined): greater than 43.7 µM and greater than 43.7 µM. Take `Cn1c2ccccc2c(=NNc2ccccc2C(=O)O)c2ccccc21`: the EC50 is greater than 200 µM and the IC50 amounted to 19.5 µM. As to `Cc1nc2c(nc1Cl)nc(Oc1ccc(Cl)cc1)c1ccccc12`, the EC50 was greater than 28.2 µM and the IC50 is greater than 28.2 µM. On to `CN(C)c1nc(=Nc2cccc(Cl)c2)ss1`, for which the outcome was inactive. In the case of `N#Cc1cc2cccn2c2c1cnn2-c1ccccc1`, the EC50 was greater than 200 µM and the IC50 worked out at 43.7 µM. Consider `COC(=O)C(=O)/C=C(/O)c1ccc(OC)cc1`, for which the EC50 was greater than 200 µM and the IC50 is greater than 200 µM. Take `COC1(C)C(=O)N2C1N(C(C)=O)CC2(C)C` (centres undefined): the EC50 is greater than 501 µM and the IC50 is greater than 501 µM. With `COc1cc2c(c(OC)c1OC)C(=O)[C@@H](OC(=O)CCCCl)[C@H]2N`, the EC50 was greater than 200 µM and the IC50 is greater than 200 µM.

As to `O[C@@H]1CCNC[C@@H]1CNC12CC3CC(CC(C3)C1)C2`, the EC50 was greater than 955 µM and the IC50 stood at 275 µM. As for `c1ccc(C(CNCCN2CCCCCC2)C2CCCCC2)cc1` (centres undefined), the EC50 was greater than 100 µM and the IC50 came out at 11.5 µM. For the compound `CCOC1=NC(C(F)(F)F)(C(F)(F)F)N=C(N2CCCCC2)O1`, the EC50 was greater than 200 µM and the IC50 stood at 97.7 µM. In the case of `CCOC(=O)c1cc(-c2ccccc2)c(OC)c(=O)nc1-c1ccccc1`, the EC50 is greater than 27.5 µM and the IC50 is greater than 27.5 µM. As to `CCN(CC)c1ccc2cc(-c3nc4ccccc4n3C)c(=O)oc2c1`, the EC50 is greater than 7.59 µM and the IC50 amounted to 0.437 µM. `CC(C(=O)O)n1[se]c2ccccc2c1=O` (centres undefined): the EC50 was 12.6 µM and the IC50 came to 120 µM. As for `CN(C)CC1CCCCCCCCCCC1=O` (centres undefined), the EC50 was greater than 200 µM; the IC50 is 117 µM and 93.3 µM.

`S=C1SC2(CCCCCC2)NC2=C1CCCCC2`: the EC50 is greater than 25.7 µM and the half-maximal inhibitory concentration (IC50) is 15.8 µM. As to `O=C1CC(Cc2n[nH]c3c2CCCC3)CC(=O)N1`, the EC50 was greater than 200 µM and the IC50 is greater than 200 µM. Consider `O=c1c2ccccc2nc(-c2ccccc2)n1NC(=S)Nc1ccc(Cl)cc1`, for which the EC50 is greater than 123 µM and the IC50 came to 107 µM. Turning to `CCOC(=O)CC[C@H](NC(=O)c1[nH]cnc1/N=N/N(C)C)C(=O)OCC`, the EC50 is greater than 676 µM and the IC50 is 339 µM. Take `CC(=O)OC12c3ccccc3-c3ccccc3C1C(C(=O)O)C2(Cl)C(=O)O` (centres undefined): the EC50 was greater than 646 µM and the IC50 stood at 355 µM. As to `NNC(=O)CC(=O)Nc1ccc(Cl)cc1`, the EC50 was greater than 200 µM and the IC50 came out at 112 µM. For the compound `CCCCn1c(N)n[nH]c1=S`, the outcome was inactive. `COC(=O)c1ccccc1/C=C1\Cc2ccc3c(c2C1=O)CCC3`: the EC50 is greater than 200 µM and the IC50 is greater than 200 µM. Take `O=C1C=C(N2CC2)C(=O)C(N2CC2)=C1N1CC1`: the EC50 was greater than 10.7 µM and the IC50 worked out at 0.0324 µM.

In the case of `CCOC(=O)C1(C/C=C/CCl)CCCC1=O` (centres undefined), the EC50 is greater than 200 µM and the IC50 was 10 µM. Consider `COc1ccc(-c2c(C)oc(=O)c(NC(=O)c3ccccc3)c2C)cc1`, for which the EC50 was greater than 200 µM and the IC50 stood at 57.5 µM. Regarding `COc1nc2c(c(=O)[nH]1)N=C(c1ccc(Cl)cc1)CC(c1ccccc1)N2` (centres undefined), the EC50 was greater than 200 µM and the IC50 amounted to 55 µM.

Regarding `COc1cc(C2c3cc4c(cc3OC(N3CCOCC3)C2C)OCO4)cc(OC)c1OC` (centres undefined), the EC50 is greater than 200 µM and the IC50 came out at 1.86 µM. With `Brc1cc2nn(-c3ccccc3)nc2c2nonc12`, the EC50 is greater than 200 µM and the IC50 was greater than 200 µM.

Turning to `Cc1ccc(S(=O)(=O)N(C)C)cc1NC1=NCCO1`, the EC50 is greater than 200 µM and the IC50 is greater than 200 µM.

Take `NC(=O)C(c1ccccc1)N1CCOCC1` (centres undefined): the EC50 is greater than 200 µM and the IC50 was 1.02 µM. Regarding `CC1CCN(c2nnc(Cl)cc2C(=O)c2ccccc2)CC1`, the EC50 is greater than 200 µM and the IC50 turned out to be 52.5 µM. `CN(C)c1ccc(C=Nc2ccc(S(N)(=O)=O)cc2)cc1`: the EC50 is greater than 200 µM and the IC50 was greater than 200 µM. Consider `CC1(C)CC2=NOS3=C2C(=NO3)C1c1ccccn1` (centres undefined), for which the EC50 is greater than 200 µM and the IC50 worked out at 95.5 µM. In the case of `CC/C(Br)=C1\CC2c3c(c4ccccc4n3C)CC(C1=O)N2Cc1ccccc1` (centres undefined), the result was inactive. The compound `O=C(O)c1ccc(-c2c3ccc(=O)cc-3oc3cc(O)ccc23)c(C(=O)O)c1` came in with an EC50 of 60.3 µM and an IC50 of 162 µM. `NNC(=O)C(=O)N/N=C1/CCCC1C(=O)CCC(=O)Nc1ccc(Cl)cc1` (centres undefined): the EC50 is greater than 66.1 µM and the IC50 is greater than 66.1 µM. `NC(N)=NCc1ccc2c(c1)OCO2`: the EC50 is greater than 200 µM and the IC50 came out at 166 µM. For the compound `N#CCCN(CCC#N)c1ccc(/C=C2\N=C(c3ccccc3)N(c3ccc(Cl)cc3)C2=O)cc1`, the EC50 is greater than 200 µM and the concentration for half-maximal inhibition (IC50) is greater than 200 µM. Consider `CN(C)/C=N/n1c2ccccc2c2ccccc21`, for which the EC50 was greater than 200 µM and the IC50 was determined as 110 µM. For `CC(=O)OCC12C(OC(C)=O)C[C@@H](C)C3(CC(c4ccoc4)OC3=O)C1CCC(O)C21CO1` (some centres undefined), the EC50 was greater than 200 µM and the IC50 is greater than 200 µM. With `CCOC(=O)Cc1c[nH]c2ccc(N(CCO)CCO)cc12`, the EC50 was greater than 200 µM.

Take `C=C(C)C(=O)OC1C[C@H](COC(C)=O)C2CC=C(C)C2C2OC(=O)C(=C)[C@H]12` (some centres undefined): the EC50 is greater than 200 µM and the IC50 was 1.05 µM. With `O=C(/C=C/c1cccs1)c1ccccc1Cl`, the EC50 was greater than 200 µM and the IC50 stood at 11.2 µM.

`COc1ccc2nc3cc(Cl)ccc3c(Sc3ccc(NC(C)=O)cc3)c2c1`: the EC50 was greater than 12.6 µM and the IC50 was greater than 12.6 µM.

As to `CC(C)(C)c1cc(Nc2ccc([N+](=O)[O-])cc2[N+](=O)[O-])cc(C(C)(C)C)c1O`, the EC50 was greater than 13.5 µM and the IC50 is greater than 13.5 µM. Consider `Cc1cc2c(C(C)C)c(O)c(O)c(C=Nc3ccc(C(=O)NCC(=O)O)cc3)c2c(O)c1-c1c(C)cc2c(C(C)C)c(O)c(O)c(C=Nc3ccc(C(=O)NCC(=O)O)cc3)c2c1O`, for which the EC50 is greater than 200 µM and the IC50 amounted to 25.7 µM. `O=C(CCCN1CCC(Nc2ccccc2)(c2nnnn2C2CCCCC2)CC1)c1ccc(F)cc1`: the EC50 was greater than 200 µM and the IC50 amounted to 75.9 µM. As to `CN(/N=C/c1ccnc2ccccc12)c1ccc([N+](=O)[O-])cc1[N+](=O)[O-]`, the result was inactive. In the case of `c1ccc(N2N=C3N(c4ccccc4)C2N3c2ccccc2)cc1`, the EC50 is greater than 200 µM and the IC50 was 30.2 µM. Turning to `O=C1Nc2ccccc2Oc2ccccc21`, the EC50 is 51.3 µM and the half-maximal inhibitory concentration (IC50) is greater than 200 µM.
